Patent US20210269434A1, “TRICYCLIC COMPOUNDS AS INHIBITORS OF KRAS” (Incyte Corporation, priority 2020, published 2021)

Tests used:
KRAS G12C = KRAS G12C (Homo sapiens, UniProt P01116, G12C); test: GDP-GTP exchange assay (KRAS_G12C exchange); format: biochemical; details: bodipy-GDP loaded KRAS G12C 2.5 nM, SOS1 150 nM, GppNHp; 2 hours pre-incubation, 2 hours reaction; read-out: G12C_exchange
How it was run: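 Fluorescence exchange of bodipy-GDP for GppNHp, SOS1-driven, read at 485/520 nm; IC50 from four-parameter variable-slope fit. Both mutants used 2.5 nM final labelled protein and a 2 h compound pre-incubation. G12C reaction had 500 uM GppNHp and 150 nM SOS1 for 2 h; G12D ran 4 h.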

[1] = tested on: MIA PaCa-2 (KRAS G12C) cells; test: Cellular pERK HTRF assay (KRAS_G12C pERK); format: cell-based, human; details: Homo sapiens, MIA PaCa-2, 4 hours incubation, read-out: G12C_pERK
How it was run: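 MIA PaCa-2 cells plated overnight, then exposed to compound for 4 h at 37 °C (G12C compounds). Phospho-ERK1/2 measured in lysates by HTRF (665/620 nm) after overnight antibody incubation; IC50 from percent inhibition versus log concentration.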

Sequence of KRAS G12C (P01116 1-188 isoform P01116-2 G12C): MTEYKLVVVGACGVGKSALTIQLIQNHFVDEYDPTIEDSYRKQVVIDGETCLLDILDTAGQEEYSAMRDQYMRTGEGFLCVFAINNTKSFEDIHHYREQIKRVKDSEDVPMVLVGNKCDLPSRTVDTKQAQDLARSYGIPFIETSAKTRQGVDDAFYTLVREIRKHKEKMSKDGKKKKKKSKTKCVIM

Compound	IC50 (KRAS G12C)	IC50 [1]
CC#CC(=O)N1CC[C@H](n2nnc3c(N4CC(C)(N(C)C)C4)nc4c(F)c(-c5cccc(C)c5Cl)c(C)cc4c32)C[C@H]1CC#N [Example 258, 2-((2S,4S)-1-(but-2-ynoyl)-4-(7-(2-chloro-3-methylphenyl)-4-(3-(dimethylamino)-3-methylazetidin-1-yl)-6-fluoro-8-methyl-1H-[1,2,3]triazolo[4,5-c]quinolin-1-yl)piperidin-2-yl)acetonitrile]	≤ 100 nM	≤ 100 nM
C=CC(=O)N1CC[C@H](n2nnc3c(N4CCOCC4=O)nc4c(F)c(-c5cccc(C)c5Cl)c(C)cc4c32)C[C@H]1CC#N [Example 259, 2-((2S,4S)-1-acryloyl-4-(7-(2-chloro-3-methylphenyl)-6-fluoro-8-methyl-4-(3-oxomorpholino)-1H-[1,2,3]triazolo[4,5-c]quinolin-1-yl)piperidin-2-yl)acetonitrile]	≤ 100 nM	≤ 100 nM
CC#CC(=O)N1CC[C@H](n2nnc3c(N4CCOCC4=O)nc4c(F)c(-c5cccc(C)c5Cl)c(C)cc4c32)C[C@H]1CC#N [Example 260, 2-((2S,4S)-1-(but-2-ynoyl)-4-(7-(2-chloro-3-methylphenyl)-6-fluoro-8-methyl-4-(3-oxomorpholino)-1H-[1,2,3]triazolo[4,5-c]quinolin-1-yl)piperidin-2-yl)acetonitrile]	≤ 100 nM	≤ 100 nM
Cc1cccc(-c2c(C)cc3c(nc(N4CCOCC4=O)c4nnn([C@H]5CCN(C(=O)/C=C/CF)[C@H](CC#N)C5)c43)c2F)c1Cl [Example 261, 2-((2S,4S)-4-(7-(2-chloro-3-methylphenyl)-6-fluoro-8-methyl-4-(3-oxomorpholino)-1H-[1,2,3]triazolo[4,5-c]quinolin-1-yl)-1-((E)-4-fluorobut-2-enoyl)piperidin-2-yl)acetonitrile]	≤ 100 nM	≤ 100 nM
Cc1cccc(-c2c(Cl)cc3c(nc(N4CC(N(C)C)C4)c4ncn([C@H]5CCN(C(=O)/C=C/CN(C)C)[C@H](CC#N)C5)c43)c2F)c1C(F)(F)F [Example 262, 2-((2S,4S)-4-(8-chloro-4-(3-(dimethylamino)azetidin-1-yl)-6-fluoro-7-(3-methyl-2-(trifluoromethyl)phenyl)-1H-imidazo[4,5-c]quinolin-1-yl)-1-((E)-4-(dimethylamino)but-2-enoyl)piperidin-2-yl)acetonitrile]	≤ 100 nM	≤ 100 nM
CC#CC(=O)N1CC[C@H](n2cnc3c(N4CC(N(C)C)C4)nc4c(F)c(-c5cccc(C)c5C(F)(F)F)c(Cl)cc4c32)C[C@H]1CC#N [Example 263, 2-((2S,4S)-1-(but-2-ynoyl)-4-(8-chloro-4-(3-(dimethylamino)azetidin-1-yl)-6-fluoro-7-(3-methyl-2-(trifluoromethyl)phenyl)-1H-imidazo[4,5-c]quinolin-1-yl)piperidin-2-yl)acetonitrile]	≤ 100 nM	≤ 100 nM
C=CC(=O)N1CC[C@H](n2cnc3c(N4CC(N(C)C)C4)nc4c(F)c(-c5cccc(C)c5C(F)(F)F)c(Cl)cc4c32)C[C@H]1CC#N [Example 264, 2-((2S,4S)-1-acryloyl-4-(8-chloro-4-(3-(dimethylamino)azetidin-1-yl)-6-fluoro-7-(3-methyl-2-(trifluoromethyl)phenyl)-1H-imidazo[4,5-c]quinolin-1-yl)piperidin-2-yl)acetonitrile]	≤ 100 nM	≤ 100 nM
C=CC(=O)N1CC[C@H](n2cnc3c(N4CC(N(C)C)C4)nc4c(F)c(-c5cccc6cccc(Cl)c56)c(Cl)cc4c32)C[C@H]1CC#N [Example 265, 2-((2S,4S)-1-acryloyl-4-(8-chloro-7-(8-chloronaphthalen-1-yl)-4-(3-(dimethylamino)azetidin-1-yl)-6-fluoro-1H-imidazo[4,5-c]quinolin-1-yl)piperidin-2-yl)acetonitrile]	≤ 100 nM	≤ 100 nM
C=CC(=O)N1CC[C@H](n2cnc3c(N4CC(N(C)C)C4)nc4c(F)c(-c5c(C)c(F)cc6[nH]ncc56)c(Cl)cc4c32)C[C@H]1CC#N [Example 266a, 2-((2S,4S)-1-acryloyl-4-(8-chloro-4-(3-(dimethylamino)azetidin-1-yl)-6-fluoro-7-(6-fluoro-5-methyl-1H-indazol-4-yl)-1H-imidazo[4,5-c]quinolin-1-yl)piperidin-2-yl)acetonitrile]	≤ 100 nM	≤ 100 nM
C=CC(=O)N1CC[C@H](n2cnc3c(N4CC(N(C)C)C4)nc4c(F)c(-c5cnc(C)c6ccccc56)c(Cl)cc4c32)C[C@H]1CC#N [Example 268a, 2-((2S,4S)-1-acryloyl-4-(8-chloro-4-(3-(dimethylamino)azetidin-1-yl)-6-fluoro-7-(1-methylisoquinolin-4-yl)-1H-imidazo[4,5-c]quinolin-1-yl)piperidin-2-yl)acetonitrile]	≤ 100 nM	≤ 100 nM
C=CC(=O)N1CC[C@H](n2cnc3c(N4CC(N(C)C)C4)nc4c(F)c(-c5c(C)ncc6ccccc56)c(Cl)cc4c32)C[C@H]1CC#N [Example 269a, 2-((2S,4S)-1-acryloyl-4-(8-chloro-4-(3-(dimethylamino)azetidin-1-yl)-6-fluoro-7-(3-methylisoquinolin-4-yl)-1H-imidazo[4,5-c]quinolin-1-yl)piperidin-2-yl)acetonitrile]	≤ 100 nM	≤ 100 nM
C=CC(=O)N1CC[C@H](n2nnc3c(N4CC(N(C)C)C4)nc4c(Cl)c(-c5cccc(Cl)c5C)c(Cl)cc4c32)C[C@H]1CC#N [Example 273, 2-((2S,4S)-1-acryloyl-4-(6,8-dichloro-7-(3-chloro-2-methylphenyl)-4-(3-(dimethylamino)azetidin-1-yl)-1H-[1,2,3]triazolo[4,5-c]quinolin-1-yl)piperidin-2-yl)acetonitrile]	≤ 100 nM	≤ 100 nM
CC#CC(=O)N1CC[C@H](n2nnc3c(N4CC(N(C)C)C4)nc4c(Cl)c(-c5ccc(F)c6cccnc56)c(Cl)cc4c32)C[C@H]1CC#N [Example 274a, 2-((2S,4S)-1-(but-2-ynoyl)-4-(6,8-dichloro-4-(3-(dimethylamino)azetidin-1-yl)-7-(5-fluoroquinolin-8-yl)-1H-[1,2,3]triazolo[4,5-c]quinolin-1-yl)piperidin-2-yl)acetonitrile]	≤ 100 nM	≤ 100 nM
CC#CC(=O)N1CC[C@H](n2nnc3c(OC[C@@H]4CCCN4C)nc4c(Cl)c(-c5cccc(Cl)c5Cl)c(Cl)cc4c32)C[C@H]1CC#N [Example 278, 2-((2S,4S)-1-(but-2-ynoyl)-4-(6,8-dichloro-7-(2,3-dichlorophenyl)-4-(((S)-1-methylpyrrolidin-2-yl)methoxy)-1H-[1,2,3]triazolo[4,5-c]quinolin-1-yl)piperidin-2-yl)acetonitrile]	≤ 100 nM	≤ 100 nM
C=CC(=O)N1CC[C@H](n2nnc3c(N4CC(N(C)C)C4)nc4c(Cl)c(-c5cccc(Cl)c5Cl)c(Cl)cc4c32)C[C@H]1CC#N [Example 281, 2-((2S,4S)-1-acryloyl-4-(6,8-dichloro-7-(2,3-dichlorophenyl)-4-(3-(dimethylamino)azetidin-1-yl)-1H-[1,2,3]triazolo[4,5-c]quinolin-1-yl)piperidin-2-yl)acetonitrile]	≤ 100 nM	≤ 100 nM
C=CC(=O)N1CC[C@H](n2nnc3c(N4CC(N(C)C)C4)nc4c(Cl)c(-c5cccc(C)c5Cl)c(Cl)cc4c32)C[C@H]1CC#N [Example 282, 2-((2S,4S)-1-acryloyl-4-(6,8-dichloro-7-(2-chloro-3-methylphenyl)-4-(3-(dimethylamino)azetidin-1-yl)-1H-[1,2,3]triazolo[4,5-c]quinolin-1-yl)piperidin-2-yl)acetonitrile]	≤ 100 nM	≤ 100 nM
C=CC(=O)N1CC[C@H](n2nnc3c(OC[C@@H]4CCCN4C)nc4c(Cl)c(-c5cccc(Cl)c5Cl)c(Cl)cc4c32)C[C@H]1CC#N [Example 285, 2-((2S,4S)-1-acryloyl-4-(6,8-dichloro-7-(2,3-dichlorophenyl)-4-(((S)-1-methylpyrrolidin-2-yl)methoxy)-1H-[1,2,3]triazolo[4,5-c]quinolin-1-yl)piperidin-2-yl)acetonitrile]	≤ 100 nM	≤ 100 nM
C=CC(=O)N1CC[C@H](n2nnc3c(OC[C@@H]4CCCN4C)nc4c(Cl)c(-c5cccc(C)c5Cl)c(Cl)cc4c32)C[C@H]1CC#N [Example 286, 2-((2S,4S)-1-acryloyl-4-(6,8-dichloro-7-(2-chloro-3-methylphenyl)-4-(((S)-1-methylpyrrolidin-2-yl)methoxy)-1H-[1,2,3]triazolo[4,5-c]quinolin-1-yl)piperidin-2-yl)acetonitrile]	≤ 100 nM	≤ 100 nM
C=CC(=O)N1CC[C@H](n2nnc3c(OC[C@@H]4CCCN4C)nc4c(Cl)c(-c5cccc(Cl)c5C)c(Cl)cc4c32)C[C@H]1CC#N [Example 287, 2-((2S,4S)-1-acryloyl-4-(6,8-dichloro-7-(3-chloro-2-methylphenyl)-4-(((S)-1-methylpyrrolidin-2-yl)methoxy)-1H-[1,2,3]triazolo[4,5-c]quinolin-1-yl)piperidin-2-yl)acetonitrile]	≤ 100 nM	≤ 100 nM
C=CC(=O)N1CC[C@H](n2nnc3c(N4CC(N(C)C)C4)nc4c(Cl)c(-c5cccc(Cl)c5OC)c(Cl)cc4c32)C[C@H]1CC#N [Example 290, 2-((2S,4S)-1-acryloyl-4-(6,8-dichloro-7-(3-chloro-2-methoxyphenyl)-4-(3-(dimethylamino)azetidin-1-yl)-1H-[1,2,3]triazolo[4,5-c]quinolin-1-yl)piperidin-2-yl)acetonitrile]	≤ 100 nM	≤ 100 nM
